These results are taken from patent US12173007B2, “Imidazopyridazine IL-17 inhibitor compounds” (Janssen Pharmaceutica NV, priority 2021, dated 2024).

Experiment [1] concerns IL-17A-induced G-CSF production in human normal keratinocyte (NHK). As to the kind of experiment: NHK assay: IL-17A-induced G-CSF production in normal human keratinocytes. Type of experiment: cell-based. The note with it: Homo sapiens, Keratinocyte, 24 h, IL-17A 5 ng/mL, G-CSF by HTRF, average if tested more than once. The gist of the method:
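Stimulus rhIL-17A 5 ng/mL final, premixed 1 h rt with compound; adult NHK, 5% FBS, 0.2% DMSO. Viability by CellTiter-Glo vs DMSO.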

Experiment [2] deals with T1, IL-17A(FLAG-Tagged): IL-17RA(His-Tagged) binding (Homo sapiens, UniProt Q16552, K93Q). As to the kind of experiment: IL-17A(FLAG-tagged):IL-17RA(His-tagged) binding disruption Eu-HTRF assay, Protocol 2. The note with it: FLAG-IL-17A 1 nM; average if tested more than once. The gist of the method: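 FLAG-tagged IL-17A (1 nM final) was preincubated with compound (2-fold serial dilutions, 22 points) for 1 h at rt in PBS + 0.01% Triton X-100. 10×His-IL-17RA, Eu-anti-FLAG and D2-anti-His in buffer containing KF were then added for 2 h at rt. IC50 came from the 665/615 nm HTRF ratio fitted to a one-site competition model.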

For experiment [3], the target named is T1, IL-17A(FLAG-Tagged): IL-17RA(His-Tagged) binding. The experiment can be described thus: IL-17A(FLAG-tagged):IL-17RA(His-tagged) binding disruption Eu-HTRF assay, Protocol 1. The note with it: FLAG-IL-17A 2.5 nM; average if tested more than once. The gist of the method:
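Compound pre-incubated 1 h at rt with FLAG-IL-17A (2.5 nM final) in PBS/0.01% Triton X-100, then 10His-IL-17RA, Eu-anti-FLAG and D2-anti-His added with KF; 2 h at rt. HTRF 665/620 nm ratio vs concentration (22-point 2-fold series) fitted to one-site competition for IC50.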

For experiment [4] the following is noted: moderate-to-severe HS, seven of nine patients, open-label pilot-trial; cited from earlier work.

T1 sequence (Q16552 with tags, fused parts or gaps K93Q): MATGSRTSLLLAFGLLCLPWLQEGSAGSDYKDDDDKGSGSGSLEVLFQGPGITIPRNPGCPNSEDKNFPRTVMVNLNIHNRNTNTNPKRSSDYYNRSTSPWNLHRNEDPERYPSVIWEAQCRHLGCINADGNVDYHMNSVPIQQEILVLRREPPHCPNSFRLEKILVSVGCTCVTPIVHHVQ

As to `COC[C@H](c1cnn2cc([C@@H](NC(=O)c3nonc3C3CC3)C3CCC(F)(F)CC3)nc2c1)N1CC(F)(F)CNC1=O` [Example 11, 4-Cyclopropyl-N—((S)-(7-((S)-1-(5,5-difluoro-2-oxotetrahydropyrimidin-1(2H)-yl)-2-methoxyethyl)imidazo[1,2-b]pyridazin-2-yl)(4,4-difluorocyclohexyl)methyl)-1,2,5-oxadiazole-3-carboxamide], the IC50 in experiment [1], in experiment [2] and in experiment [3] was less than 50 nM each time.

Consider `Cc1nonc1C(=O)N[C@H](c1cn2ncc([C@@H](COC3CC3)N3CC(F)(F)CNC3=O)cc2n1)C1CCC(F)(F)CC1` [Example 16, N—((S)-(7-((S)-2-Cyclopropoxy-1-(5,5-difluoro-2-oxotetrahydropyrimidin-1(2H)-yl)ethyl)imidazo[1,2-b]pyridazin-2-yl)(4,4-difluorocyclohexyl)methyl)-4-methyl-1,2,5-oxadiazole-3-carboxamide], for which the IC50 in experiment [1], in experiment [2] and in experiment [3] was less than 50 nM each time.

In the case of `Cc1nonc1C(=O)N[C@H](c1cn2ncc(CN3CC(C)(C)CNC3=O)cc2n1)C1CCC(F)(F)CC1` [Example 32, (S)—N-((4,4-Difluorocyclohexyl)(7-((5,5-dimethyl-2-oxotetrahydropyrimidin-1(2H)-yl)methyl)imidazo[1,2-b]pyridazin-2-yl)methyl)-4-methyl-1,2,5-oxadiazole-3-carboxamide], the IC50 in experiment [1] and in experiment [3] was more than 100 nM in each case.

As for `CC1(C)CNC(=O)N(Cc2cnn3cc([C@@H](NC(=O)c4nonc4C4CC4)C4CCC(F)(F)CC4)nc3c2)C1` [Example 33, (S)-4-Cyclopropyl-N-((4,4-difluorocyclohexyl)(7-((5,5-dimethyl-2-oxotetrahydropyrimidin-1(2H)-yl)methyl)imidazo[1,2-b]pyridazin-2-yl)methyl)-1,2,5-oxadiazole-3-carboxamide], the IC50 in experiment [1] is more than 100 nM; in experiment [3], 50 to 100 nM.

Take `CC(C)n1nccc1C(=O)N[C@H](c1cn2ncc(CN3CC(C)(C)CNC3=O)cc2n1)C1CCC(F)(F)CC1` [Example 34, (S)—N-((4,4-Difluorocyclohexyl)(7-((5,5-dimethyl-2-oxotetrahydropyrimidin-1(2H)-yl)methyl)imidazo[1,2-b]pyridazin-2-yl)methyl)-1-isopropyl-1H-pyrazole-5-carboxamide]: the IC50 in experiment [1] and in experiment [3] was more than 100 nM each time.

As for `N#CC1([C@H](c2cnn3cc([C@@H](NC(=O)c4nonc4C4CC4)C4CCC(F)(F)CC4)nc3c2)N2CC(F)(F)CNC2=O)CCC1` [Example 85, N—((S)-(7-((S)-(1-Cyanocyclobutyl)(5,5-difluoro-2-oxotetrahydropyrimidin-1(2H)-yl)methyl)imidazo[1,2-b]pyridazin-2-yl)(4,4-difluorocyclohexyl)methyl)-4-cyclopropyl-1,2,5-oxadiazole-3-carboxamide], the IC50 was more than 100 nM in experiment [1] and less than 50 nM in experiment [3].

Take `O=C(N[C@H](c1cn2ncc(CN3CC(F)(F)C(F)(F)CNC3=O)cc2n1)C1CCC(F)(F)CC1)c1nonc1C1CC1` [Example 86, (S)-4-Cyclopropyl-N-((4,4-difluorocyclohexyl)(7-((5,5,6,6-tetrafluoro-2-oxo-1,3-diazepan-1-yl)methyl)imidazo[1,2-b]pyridazin-2-yl)methyl)-1,2,5-oxadiazole-3-carboxamide]: the IC50 in experiment [1], in experiment [2] and in experiment [3] was less than 50 nM in each case.

Take secukinumab: the “patients achieved HiSCR” value in experiment [4] was 78%.
